In patent US6329523A, “Compounds having a plurality of nitrogenous substitutents” (ISIS Pharmaceuticals, Inc., priority 1999, dated 2001):
Values after ≈ are worked out from the molar mass of the structure shown.

Legend:
Assay type in all cases: cell-based
Streptococcus pyogenes = experiment: MIC / bacterial growth assay, Streptococcus pyogenes; settings: for inhibition at 100 µM: read-out: inhibition in the S. pyogenes procedure
Description: S. pyogenes [American Type Culture Collection (ATCC) #14289] is used in this bacterial growth assay. To initiate the exponential phase of bacterial growth prior to the assay, a sample of bacteria is grown for 6 hours in Todd Hewitt Broth (Difco 0492-17-6) at 37° C. then re-inoculated into fresh media and grown overnight at 37° C. The bacterial cells are collected by centrifugation for 10 minutes at 3200 rpm, diluted and absorbance read at 595 nm. Bacteria diluted in 233 Todd-Hewitt Broth ([…]) are added to the compound mixtures (75 μL) for a total volume of 150 μL. The assays are performed in 96-well microplates with approximately 1×10^4 colony forming units (CFU) per well. The plates are incubated at 37° C. and growth monitored over a 24 hour period by measuring the optical density at 595 nm using a BioRad model 3550 UV microplate reader. The percentage of growth relative to a well containing no compound is determined. Ampicillin and tetracycline antibiotic controls are concurrently tested in each screening assay.
(§1) Compounds are assayed in duplicate at a single dose. Compounds which show inhibitory activity are re-tested in duplicate at multiple doses to determine minimum inhibitory concentration (MIC).

C. albicans = experiment: antifungal MIC assay, C. albicans; settings: Candida albicans, 24 h; MIC ASSAYS table; unit inferred
Description: Yeast diluted in 2×YM Broth (75 μL) are added to the compound mixtures (75 μL) for a total volume of 150 μL. The assays are performed in 96-well microplates with approximately 1×10^4 cells per well. The plates are incubated at 25° C. and growth monitored at 48 hours by visual inspection of yeast growth. Amphotericin B anti-fungal control is concurrently tested in each screening assay.
Compounds are assayed in duplicate at multiple doses to determine minimum inhibitory concentration (MIC).

E. coli imp- = experiment: MIC / bacterial growth assay, E. coli imp-; settings: Escherichia coli
Description: The strain E. coli imp- obtained from Spencer Benson (Sampson, B. A., Misra, R. & Benson, S. A., Genetics, 1989, 122, 491-501, Identification and characterization of a new gene of Escherichia coli K-12 involved in outer membrane permeability) is used in this bacterial growth assay. To initiate the exponential phase of bacterial growth prior to the assay, a sample of bacteria is grown for 6 hours in Mueller Hinton II Broth (BBL 12322) at 37° C. then re-inoculated into fresh media and grown overnight at 37° C. The bacterial cells are collected by centrifugation for 10 minutes at 3200 rpm, diluted and absorbance read at 595 nm. Bacteria diluted in 2×Mueller Hinton II Broth (75 μL) are added to the compound mixtures (75μL) for a total volume of 150 μL. The assays are performed in 96-well microplates with approximately 1×10^4 colony forming units (CFU) per well. The plates are incubated at 37° C. and growth monitored over a 24 hour period by measuring the optical density at 595 nm using a BioRad model 3550 UV microplate reader. The percentage of growth relative to a well containing no compound is determined. Ampicillin and tetracycline antibiotic controls are concurrently tested in each screening assay.
as §1

SMILES	MIC (Streptococcus pyogenes; 24 h, MIC ASSAYS table, first round or parent libraries, unit inferred, read-out: MIC S. pyrogenes) [µM]	MIC (C. albicans) [µM]	MIC (E. coli imp-; 24 h, read-out: MIC E. coli) [µM]	inhibition at 100 µM (Streptococcus pyogenes) [%]	inhibition at 100 µM (E. coli imp-; read-out: inhibition in the E. coli procedure) [%]
OCCCN(CCN(Cc1ccccc1)Cc1cccc(CN(Cc2ccccc2)Cc2ccccc2)n1)Cc1ccccc1 [Compound 9, 2-(N,N-dibenzylaminomethylene)-6-{[N1-[benzyl(methyl-1-yl)]-N2-(benzyl)-1-propanol-3-yl]-1,2-diaminoethane}pyridine]	5 to 25 (≈ 2.99 to 15 µg/mL)	1 to 5 (≈ 0.599 to 2.99 µg/mL)	5 to 25 (≈ 2.99 to 15 µg/mL)	–	–
NC(=O)CN(Cc1cccc(C(F)(F)F)c1)Cc1cccc(CN(CCNCCCO)Cc2cccc(C(F)(F)F)c2)n1 [Example 137]	–	–	–	95	87
N=C(N)NCc1cccc(CN(CCNCCCO)Cc2cccc(C(F)(F)F)c2)n1 [Example 142]	–	–	–	95	–
